≈ marks a conversion by molar mass, not a printed value. Like-named read-outs stand apart in the source and are kept apart here. Numbered stars: 1 amine (or outer) side, 2 acyl side, 3 side chain; on linkers, the order of the positions; unused ones are H or OH. Bridge positions count the residues as written; N and C are the ends. Square brackets hold non-standard residues; d marks the D form. Peptide text beside a SMILES is read from it. * marks the point of attachment. Piperazine(2S-CO,4-Me) = CN1CCN[C@H](C(=O)O)C1; Morpholine(3S-CO) = O=C(O)[C@@H]1COCCN1; Phe(3-Me) = Cc1cccc(C[C@H](N)C(=O)O)c1; Pro(4S-Me) = C[C@@H]1CN[C@H](C(=O)O)C1; Pro(4R-Me) = C[C@H]1CN[C@H](C(=O)O)C1; Hyp = O=C(O)[C@@H]1C[C@@H](O)CN1; NH(3-Cl-phenyl) = Clc1cccc(N*)c1; NH(4-Cl-phenyl) = Clc1ccc(N*)cc1; aThr = C[C@H](O)[C@H](N)C(=O)O; Pip = O=C(O)[C@@H]1CCCCN1; CO = O=C([*:1])[*:2]
What was measured:
[1] = system: S. aureus USA 300; experiment: Minimal inhibitory concentration, microbroth dilution; assay type: cell-based; conditions: Staphylococcus aureus
Outline: (§1)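 MICs were determined by CLSI broth microdilution, using two-fold compound dilutions from a final 200 μM and about 10^5 cfu/mL inoculum. Plates were incubated aerobically at 37 °C overnight. The MIC was read visually as the lowest concentration preventing growth.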

[2] = system: E. faecails; experiment: as above; assay type: cell-based; conditions: Enterococcus faecalis
Outline: as §1

[3] = system: MRSA NRS70; experiment: as above; assay type: cell-based; conditions: Staphylococcus aureus
Outline: as §1

[4] = system: S. aureus ATCC 29213; experiment: as above; assay type: cell-based; conditions: Staphylococcus aureus
Outline: as §1

[5] = target: T1, S. aureus ClpP (Sa-ClpP) (Staphylococcus aureus, UniProt Q2G036); experiment: Casein-BODIPY digestion assay (ClpP activation); assay type: biochemical
T1 construct: made in house; host or cells: E. coli BL21 (DE3)
T1 sequence (Q2G036 whole entry): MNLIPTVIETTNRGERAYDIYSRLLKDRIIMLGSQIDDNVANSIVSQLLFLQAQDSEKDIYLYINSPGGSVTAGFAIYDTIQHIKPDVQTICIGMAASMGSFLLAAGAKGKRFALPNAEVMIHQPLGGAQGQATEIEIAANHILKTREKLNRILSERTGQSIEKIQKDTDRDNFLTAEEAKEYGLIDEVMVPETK

[6] = system: S. aureus ΔClpP; experiment: Minimal inhibitory concentration, microbroth dilution; assay type: cell-based, Staphylococcus aureus; conditions: MIC; ClpP inactivated
Outline: as §1

[7] = USA300, read-out: Minimal Inhibitory Concentrations (μM) S. aureus USA 300, MIC
[8] = read-out: Minimal Inhibitory Concentrations (μM) E. faecails, MIC
[9] = read-out: Minimal Inhibitory Concentrations (μM) MRSA NRS70, MIC
[10] = ATCC29213, read-out: Minimal Inhibitory Concentrations (μM) S. aureus ATCC 29213, MIC
[11] = USA300, MIC, read-out: Minimal Inhibitory Concentrations (μM) S. aureus USA 300
[12] = MIC, read-out: Minimal Inhibitory Concentrations (μM) E. faecails
[13] = MIC, read-out: Minimal Inhibitory Concentrations (μM) MRSA NRS70
[14] = ATCC29213, MIC, read-out: Minimal Inhibitory Concentrations (μM) S. aureus ATCC 29213

SMILES	MIC [1, 7]	MIC [2, 8]	MIC [3, 9]	MIC [4, 10]	EC50 [5]	Minimal Inhibitory Concentrations (μM) S. aureus ΔClpP [6]	MIC [1, 11]	MIC [2, 12]	MIC [3, 13]	MIC [4, 14]
Cc1cccc(C[C@H](NC(=O)Nc2ccc(Cl)cc2)C(=O)N[C@@H]2C(=O)N3C[C@H](O)C[C@H]3C(=O)N3CCN(C)C[C@H]3C(=O)N[C@@H](C)C(=O)N3C[C@H](C)C[C@H]3C(=O)O[C@H]2C)c1 [Compound 68, (S)-2-(3-(4-CHLOROPHENYL)UREIDO)-N-((6AS,8R,12S,13S,15AS,17R,21S,23AS)-8-HYDROXY-2,13,17,21-TETRAMETHYL-6,11,15,20,23-PENTAOXOOCTADECAHYDRO-2H,6H,11H,15H-PYRAZINO[2,1-I]DIPYRROLO[2,1-C:2′,1′-L][1]OXA[4,7,10,13]TETRAAZACYCLOHEXADECIN-12-YL)-3-(M-TOLYL)PROPANAMIDE] ({NH(4-Cl-phenyl)-CO}-[Phe(3-Me)][aThr][Hyp][Piperazine(2S-CO,4-Me)]A[Pro(4R-Me)]; ester 2-C)	0.625 µM (≈ 0.523 µg/mL)	0.625 µM (≈ 0.523 µg/mL)	2.5 µM (≈ 2.09 µg/mL)	1.25 µM (≈ 1.05 µg/mL)	0.29 ± 0.1 µM	>20 µM				
Cc1cccc(C[C@H](NC(=O)Nc2cccc(Cl)c2)C(=O)N[C@@H]2C(=O)N3C[C@H](O)C[C@H]3C(=O)N3CCCC[C@H]3C(=O)N[C@@H](C)C(=O)N3C[C@@H](C)C[C@H]3C(=O)O[C@H]2C)c1 [Compound 67, (S)-2-(3-(3-CHLOROPHENYL)UREIDO)-N-((2S,6S,8AS,14AS,16R,20S,21S,23AS)-16-HYDROXY-2,6,21-TRIMETHYL-5,8,14,19,23-PENTAOXOOCTADECAHYDRO-1H,5H,14H,19H-PYRIDO[2,1-I]DIPYRROLO[2,1-C:2′,1′-L][1]OXA[4,7,10,13]TETRAAZACYCLOHEXADECIN-20-YL)-3-(M-TOLYL)PROPANAMIDE] ({NH(3-Cl-phenyl)-CO}-[Phe(3-Me)][aThr][Hyp][Pip]A[Pro(4S-Me)]; ester 2-C)	2.5 µM (≈ 2.06 µg/mL)	5 µM (≈ 4.11 µg/mL)	2.5 µM (≈ 2.06 µg/mL)	2.5 µM (≈ 2.06 µg/mL)	0.44 ± 0.3 µM	>20 µM				
Cc1cccc(C[C@H](NC(=O)Nc2ccc(Cl)cc2)C(=O)N[C@H]2COC(=O)[C@@H]3C[C@@H](C)CN3C(=O)[C@H](C)NC(=O)[C@@H]3CCCCN3C(=O)[C@@H]3CCCN3C2=O)c1 [Compound 71, (S)-2-(3-(4-CHLOROPHENYL)UREIDO)-N-((2R,6S,8AS,14AS,20S,23AS)-2,6-DIMETHYL-5,8,14,19,23-PENTAOXOOCTADECAHYDRO-1H,5H,14H,19H-PYRIDO[2,1-I]DIPYRROLO[2,1-C:2′,1′-L][1]OXA[4,7,10,13]TETRAAZACYCLOHEXADECIN-20-YL)-3-(M-TOLYL)PROPANAMIDE]	0.625 µM (≈ 0.495 µg/mL)	0.313 µM (≈ 0.248 µg/mL)	0.313 µM (≈ 0.248 µg/mL)	0.625 µM (≈ 0.495 µg/mL)	0.25 ± 0.1 µM	>20 µM				
CCc1ccc(NC(=O)N[C@@H](Cc2cccc(C)c2)C(=O)N[C@H]2COC(=O)[C@@H]3CCCN3C(=O)[C@H](C)NC(=O)[C@@H]3CCCCN3C(=O)[C@@H]3C[C@@H](O)CN3C2=O)cc1 [Compound 55, (S)-2-(3-(4-ETHYLPHENYL)UREIDO)-N-((6S,8AS,14AS,16R,20S,23AS)-16-HYDROXY-6-METHYL-5,8,14,19,23-PENTAOXOOCTADECAHYDRO-1H,5H,14H,19H-PYRIDO[2,1-I]DIPYRROLO[2,1-C:2′,1′-L][1]OXA[4,7,10,13]TETRAAZACYCLOHEXADECIN-20-YL)-3-(M-TOLYL)PROPANAMIDE]					1.05 ± 1 µM	>20 µM	2.5 µM (≈ 1.97 µg/mL)	2.5 µM (≈ 1.97 µg/mL)	2.5 µM (≈ 1.97 µg/mL)	5 µM (≈ 3.94 µg/mL)
Cc1cccc(C[C@H](NC(=O)Nc2cccc(Cl)c2)C(=O)N[C@@H]2C(=O)N3CCC[C@H]3C(=O)N3CCCC[C@H]3C(=O)N[C@@H](C)C(=O)N3C[C@H](C)C[C@H]3C(=O)O[C@H]2C)c1 [Compound 64, (S)-2-(3-(3-CHLOROPHENYL)UREIDO)-3-(M-TOLYL)-N-((2R,6S,8AS,14AS,20S,21S,23AS)-2,6,21-TRIMETHYL-5,8,14,19,23-PENTAOXOOCTADECAHYDRO-1H,5H,14H,19H-PYRIDO[2,1-I]DIPYRROLO[2,1-C:2′,1′-L][1]OXA[4,7,10,13]TETRAAZACYCLOHEXADECIN-20-YL)PROPANAMIDE] ({NH(3-Cl-phenyl)-CO}-[Phe(3-Me)][aThr]P[Pip]A[Pro(4R-Me)]; ester 2-C)	1.25 µM (≈ 1.01 µg/mL)	10 µM (≈ 8.06 µg/mL)	0.625 µM (≈ 0.504 µg/mL)	0.625 µM (≈ 0.504 µg/mL)	0.43 ± 0.2 µM	>20 µM				
CCc1ccc(NC(=O)N[C@@H](Cc2cccc(C)c2)C(=O)N[C@H]2COC(=O)[C@@H]3C[C@H](C)CN3C(=O)[C@H](C)NC(=O)[C@@H]3CCCCN3C(=O)[C@@H]3CCCN3C2=O)cc1 [Compound 52, (S)—N-((2S,6S,8AS,14AS,20S,23AS)-2,6-DIMETHYL-5,8,14,19,23-PENTAOXOOCTADECAHYDRO-1H,5H,14H,19H-PYRIDO[2,1-I]DIPYRROLO[2,1-C:2′,1′-L][1]OXA[4,7,10,13]TETRAAZACYCLOHEXADECIN-20-YL)-2-(3-(4-ETHYLPHENYL)UREIDO)-3-(M-TOLYL)PROPANAMIDE]					0.22 ± 0.1 µM	>20 µM	0.625 µM (≈ 0.491 µg/mL)	0.313 µM (≈ 0.246 µg/mL)	0.313 µM (≈ 0.246 µg/mL)	0.625 µM (≈ 0.491 µg/mL)
Cc1cccc(C[C@H](NC(=O)Nc2ccc(Cl)cc2)C(=O)N[C@H]2COC(=O)[C@@H]3CCCN3C(=O)[C@H](C)NC(=O)[C@@H]3CCCCN3C(=O)[C@@H]3C[C@@H](O)CN3C2=O)c1 [Compound 56, (S)-2-(3-(4-CHLOROPHENYL)UREIDO)-N-((6S,8AS,14AS,16R,20S,23AS)-16-HYDROXY-6-METHYL-5,8,14,19,23-PENTAOXOOCTADECAHYDRO-1H,5H,14H,19H-PYRIDO[2,1-I]DIPYRROLO[2,1-C:2′,1′-L][1]OXA[4,7,10,13]TETRAAZACYCLOHEXADECIN-20-YL)-3-(M-TOLYL)PROPANAMIDE]	2.5 µM (≈ 1.99 µg/mL)	2.5 µM (≈ 1.99 µg/mL)	10 µM (≈ 7.94 µg/mL)	5 µM (≈ 3.97 µg/mL)	1.33 ± 2.5 µM	>20 µM				
Cc1cccc(C[C@H](NC(=O)Nc2cccc(Cl)c2)C(=O)N[C@@H]2C(=O)N3C[C@H](O)C[C@H]3C(=O)N3CCOC[C@H]3C(=O)N[C@@H](C)C(=O)N3C[C@H](C)C[C@H]3C(=O)O[C@H]2C)c1 [Compound 74, (S)-2-(3-(3-CHLOROPHENYL)UREIDO)-N-((6AS,8R,12S,13S,15AS,17R,21S,23AS)-8-HYDROXY-13,17,21-TRIMETHYL-6,11,15,20,23-PENTAOXOOCTADECAHYDRO-6H,11H,15H-[1,4]OXAZINO[3,4-I]DIPYRROLO[2,1-C:2′,1′-L][1]OXA[4,7,10,13]TETRAAZACYCLOHEXADECIN-12-YL)-3-(M-TOLYL)PROPANAMIDE] ({NH(3-Cl-phenyl)-CO}-[Phe(3-Me)][aThr][Hyp][Morpholine(3S-CO)]A[Pro(4R-Me)]; ester 2-C)	1.25 µM (≈ 1.03 µg/mL)	> 20 µM	5 µM (≈ 4.12 µg/mL)	5 µM (≈ 4.12 µg/mL)	0.25 ± 0.1 µM	>20 µM				
Cc1cccc(C[C@H](NC(=O)Nc2cccc(Cl)c2)C(=O)N[C@H]2COC(=O)[C@@H]3CCCN3C(=O)[C@H](C)NC(=O)[C@@H]3CCCCN3C(=O)[C@@H]3C[C@@H](O)CN3C2=O)c1 [Compound 57, (S)-2-(3-(3-CHLOROPHENYL)UREIDO)-N-((6S,8AS,14AS,16R,20S,23AS)-16-HYDROXY-6-METHYL-5,8,14,19,23-PENTAOXOOCTADECAHYDRO-1H,5H,14H,19H-PYRIDO[2,1-I]DIPYRROLO[2,1-C:2′,1′-L][1]OXA[4,7,10,13]TETRAAZACYCLOHEXADECIN-20-YL)-3-(M-TOLYL)PROPANAMIDE]	10 µM (≈ 7.94 µg/mL)	10 µM (≈ 7.94 µg/mL)	10 µM (≈ 7.94 µg/mL)	20 µM (≈ 15.9 µg/mL)	1.88 ± 2.4 µM	>20 µM				

— US10570179B2, “Substituted urea depsipeptide analogs as activators of the CLPP endopeptidase” (priority 2016, dated 2020)
